The results in this text go back to patent US20240270762A1, “PENICILLIN-BINDING PROTEIN INHIBITORS” (priority 2021, published 2024).

Molecules are shown by their SMILES. Converted amounts (≈) assume the structure as drawn.

For one test, the system named is A. baumannii ATCC 17978. Kind of test: microbe, parasite or virus in culture. It counts as cell-based. The following applies: Acinetobacter baumannii, ATCC17978, read-out: MIC, A. baumannii ATCC 17978.
Test [1] deals with B. thailandensis ATCC 700388. Briefly: microbe, parasite or virus in culture. The conditions noted are these: Burkholderia thailandensis, ATCC700388, read-out: Minimum inhibitory concentration (MIC), B. thailandensis ATCC 700388. It counts as cell-based.
The next test concerns A. baumannii 1258916. Briefly: microbe, parasite or virus in culture. It counts as cell-based, Acinetobacter baumannii. The following applies: Acinetobacter baumannii, 1258916, read-out: MIC, A. baumannii 1258916.
In another test the test system is P. aeruginosa CDC-0054. Briefly: microbe, parasite or virus in culture. It counts as cell-based. The conditions noted are these: Pseudomonas aeruginosa, CDC0054, read-out: Minimum inhibitory concentration, P. aeruginosa CDC-0054.
The test system of test [2] is P. aeruginosa (ΔmexAB-oprM). Briefly: Broth microdilution MIC in iron-depleted CAMHB (IDM). It counts as cell-based. The conditions noted are these: Pseudomonas aeruginosa; iron-depleted CAMHB (IDM); […]; read-out: Minimum inhibitory concentration, P. aeruginosa ΔmexAB-oprM. (Dilution methods test growth across graded concentrations, often in twofold steps.)
For another test, the system named is P. aeruginosa ATCC 35151. Kind of test: microbe, parasite or virus in culture. In kind it is cell-based. The following applies: Pseudomonas aeruginosa, ATCC35151, read-out: Minimum inhibitory concentration, P. aeruginosa ATCC 35151.
Test [3] has as its target T1, PBP3 from Acinetobacter baumannii (ATCC 19606) (Acinetobacter baumannii, UniProt A0ABX6CK25).
T1 sequence (A0ABX6CK25 64-610): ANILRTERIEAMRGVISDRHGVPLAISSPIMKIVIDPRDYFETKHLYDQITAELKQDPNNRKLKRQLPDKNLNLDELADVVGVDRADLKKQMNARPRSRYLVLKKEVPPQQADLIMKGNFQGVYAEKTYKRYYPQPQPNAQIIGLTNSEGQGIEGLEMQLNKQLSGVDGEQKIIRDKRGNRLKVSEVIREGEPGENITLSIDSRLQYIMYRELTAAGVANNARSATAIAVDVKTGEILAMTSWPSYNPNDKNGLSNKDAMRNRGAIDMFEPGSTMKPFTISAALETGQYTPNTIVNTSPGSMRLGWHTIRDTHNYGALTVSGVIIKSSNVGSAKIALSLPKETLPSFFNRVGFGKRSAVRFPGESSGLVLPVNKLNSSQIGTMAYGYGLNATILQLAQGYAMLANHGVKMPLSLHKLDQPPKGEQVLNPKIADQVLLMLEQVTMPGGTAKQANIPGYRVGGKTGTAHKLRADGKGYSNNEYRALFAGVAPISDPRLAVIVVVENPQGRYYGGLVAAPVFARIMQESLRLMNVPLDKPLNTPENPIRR
Kind of test: Bocillin-FL fluorescence polarization competition binding, A. baumannii PBP3. The following applies: fluorescence polarization competition binding assay using Bocillin-FL; read-out: A. baumannii PBP3 Potency. A digest of the protocol:
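Purified PBPs pre-incubated with inhibitor (E. coli PBP3 1.5 μM, 30 min; P. aeruginosa PBP3 0.75 μM, A. baumannii PBP1a 1 μM and PBP3 0.2 μM, 15 min), then Bocillin-FL 0.1 μM (0.05 μM for PBP1a) added; FP read up to 60 min. EC50 = concentration halving bound Bocillin-FL.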

The test system of test [4] is B. humptydooensis ATCC BAA-2767. Briefly: microbe, parasite or virus in culture. It counts as cell-based. The following applies: Burkholderia humptydooensis, ATCCBAA2767, read-out: Minimum inhibitory concentration (MIC), B. humptydooensis ATCC BAA-2767.
Another test deals with A. baumannii CDC-0033. Briefly: microbe, parasite or virus in culture. The conditions noted are these: Acinetobacter baumannii, CDC0033, read-out: MIC, A. baumannii CDC-0033. It counts as cell-based.
The next test concerns A. baumannii CDC-0045. Kind of test: microbe, parasite or virus in culture. It counts as cell-based. The following applies: Acinetobacter baumannii, CDC0045, read-out: MIC, A. baumannii CDC-0045.

For `O=C(O)c1c(F)ccc2c1OB(O)[C@@H](NC(=O)C(NC(=O)N1CCN(C3CCN(S(=O)(=O)Cc4cccc(O)c4)CC3)C(=O)C1=O)c1cc(F)c(O)c(O)c1Cl)C2` (stereo partly drawn) [Example 485, (3R)-3-(2-(2-chloro-5-fluoro-3,4-dihydroxyphenyl)-2-(4-(1-((3-hydroxybenzyl)sulfonyl)piperidin-4-yl)-2,3-dioxopiperazine-1-carboxamido)acetamido)-7-fluoro-2-hydroxy-3,4-dihydro-2H-benzo[e][1,2]oxaborinine-8-carboxylic acid], the MIC in the test on A. baumannii ATCC 17978 was less than 1 µg/mL; in test [1], 2 to 4 µg/mL (≈ 2.39 to 4.78 µM); in the test with A. baumannii 1258916, less than 1 µg/mL; in the test on P. aeruginosa CDC-0054, less than 1 µg/mL; in test [2] it was less than 1 µg/mL; with P. aeruginosa ATCC 35151, less than 1 µg/mL. Moreover, the MIC is 2 to 4 µg/mL (≈ 2.39 to 4.78 µM) in [4], less than 1 µg/mL in the test with A. baumannii CDC-0033 and less than 1 µg/mL in the test with A. baumannii CDC-0045. The IC50 in test [3] was less than 10 µM.

For the compound `O=C(O)c1c(F)ccc2c1OB(O)[C@@H](NC(=O)[C@@H](NC(=O)N1CCN(C3CCN(C(=O)c4ccc(O)cc4)CC3)C1=O)c1cc(F)c(O)c(O)c1Cl)C2` (single isomer, unassigned) [Example 462], the MIC in the test on A. baumannii ATCC 17978 is less than 1 µg/mL; in test [1], more than 128 µg/mL; in the test on A. baumannii 1258916, 32 to 64 µg/mL (≈ 42.2 to 84.4 µM); in the test on P. aeruginosa CDC-0054, 8 to 16 µg/mL (≈ 10.6 to 21.1 µM); in [2], 2 to 4 µg/mL (≈ 2.64 to 5.28 µM); in the test with P. aeruginosa ATCC 35151, less than 1 µg/mL. The MIC is more than 128 µg/mL in test [4], 32 to 64 µg/mL (≈ 42.2 to 84.4 µM) in the test with A. baumannii CDC-0033 and 32 to 64 µg/mL (≈ 42.2 to 84.4 µM) in the test on A. baumannii CDC-0045. Moreover, in test [3], the IC50 was less than 10 µM.

For `O=C(O)c1c(F)ccc2c1OB(O)[C@@H](NC(=O)C(NC(=O)N1CCN(C3CCN(C(=O)Nc4cc(O)cc(F)c4)CC3)C(=O)C1=O)c1cc(F)c(O)c(O)c1Cl)C2` (stereo partly drawn) [Example 481, (3R)-3-(2-(2-chloro-5-fluoro-3,4-dihydroxyphenyl)-2-(4-(1-((3-fluoro-5-hydroxyphenyl)carbamoyl)piperidin-4-yl)-2,3-dioxopiperazine-1-carboxamido)acetamido)-7-fluoro-2-hydroxy-3,4-dihydro-2H-benzo[e][1,2]oxaborinine-8-carboxylic acid], the MIC was less than 1 µg/mL with A. baumannii ATCC 17978; 2 to 4 µg/mL (≈ 2.44 to 4.88 µM) in test [1]; less than 1 µg/mL in the test on A. baumannii 1258916; less than 1 µg/mL in the test with P. aeruginosa CDC-0054; less than 1 µg/mL in test [2]; less than 1 µg/mL with P. aeruginosa ATCC 35151. In addition, the results for the MIC (in test [4]; in the test with A. baumannii CDC-0033; in the test on A. baumannii CDC-0045) were 32 to 64 µg/mL (≈ 39.1 to 78.2 µM), 2 to 4 µg/mL (≈ 2.44 to 4.88 µM) and less than 1 µg/mL, respectively. The IC50 in test [3] is less than 10 µM.

For the compound `O=C(O)c1c(F)ccc2c1OB(O)[C@@H](NC(=O)[C@H](NC(=O)N1CCN(C3CCN(C(=O)c4cc(O)c(F)c(O)c4F)CC3)C1=O)c1cc(F)c(O)c(O)c1Cl)C2` (single isomer, unassigned) [Example 444], the MIC (in the test on A. baumannii ATCC 17978; in test [1]; with A. baumannii 1258916; in the test on P. aeruginosa CDC-0054; in test [2]; with P. aeruginosa ATCC 35151) was less than 1 µg/mL each time. Further, the MIC (in [4]; in the test with A. baumannii CDC-0033; in the test on A. baumannii CDC-0045) was less than 1 µg/mL each time. Besides, the IC50 in [3] was less than 10 µM.

Take `O=C(O)c1c(F)ccc2c1OB(O)[C@@H](NC(=O)[C@H](NC(=O)N1CCN(C3CCN(C(=O)c4cc(F)c(F)c(O)c4F)CC3)C1=O)c1cc(F)c(O)c(O)c1Cl)C2` (single isomer, unassigned) [Example 441]: the MIC (in the test on A. baumannii ATCC 17978; in test [1]; with A. baumannii 1258916; in the test on P. aeruginosa CDC-0054; in test [2]; with P. aeruginosa ATCC 35151) was less than 1 µg/mL each time. Also, the MIC (in test [4]; in the test on A. baumannii CDC-0033; in the test on A. baumannii CDC-0045) was less than 1 µg/mL each time. Besides, the IC50 in [3] is less than 10 µM.

For `O=C(O)c1c(F)ccc2c1OB(O)[C@@H](NC(=O)[C@H](NC(=O)N1CCN(C3CCN(C(=O)c4cccnc4)CC3)C1=O)c1cc(F)c(O)c(O)c1Cl)C2` [Example 460, (R)-3-((R)-2-(2-chloro-5-fluoro-3,4-dihydroxyphenyl)-2-(3-(1-nicotinoylpiperidin-4-yl)-2-oxoimidazolidine-1-carboxamido)acetamido)-7-fluoro-2-hydroxy-3,4-dihydro-2H-benzo[e][1,2]oxaborinine-8-carboxylic acid], the MIC (with A. baumannii ATCC 17978; in [1]; with A. baumannii 1258916; with P. aeruginosa CDC-0054; in [2]; in the test on P. aeruginosa ATCC 35151) was less than 1 µg/mL in each case. The MIC (in test [4]; in the test on A. baumannii CDC-0033; in the test with A. baumannii CDC-0045) was less than 1 µg/mL throughout. Further, the IC50 in test [3] was less than 10 µM.

In the case of `O=C(O)c1c(F)ccc2c1OB(O)[C@@H](NC(=O)[C@H](NC(=O)N1CCN(Cc3ccc(O)c(O)c3Cl)C(=O)C1=O)c1cccc(P(=O)(O)O)c1)C2` (single isomer, unassigned) [Example 163], the MIC (with A. baumannii ATCC 17978; in test [1]; with A. baumannii 1258916; in the test with P. aeruginosa CDC-0054; in test [2]; in the test on P. aeruginosa ATCC 35151) was less than 1 µg/mL throughout. Moreover, the MIC (in test [4]; in the test with A. baumannii CDC-0033; in the test on A. baumannii CDC-0045) was less than 1 µg/mL each time. In addition, the IC50 in [3] was less than 10 µM.

As to `O=C(O)c1c(F)ccc2c1OB(O)[C@@H](NC(=O)[C@H](NC(=O)N1CCN(C3CCN(C(=O)Nc4cccc(O)c4Cl)CC3)C(=O)C1=O)c1cc(F)c(O)c(O)c1Cl)C2` [Example 482, (R)-3-((R)-2-(4-(1-((2-chloro-3-hydroxyphenyl)carbamoyl)piperidin-4-yl)-2,3-dioxopiperazine-1-carboxamido)-2-(2-chloro-5-fluoro-3,4-dihydroxyphenyl)acetamido)-7-fluoro-2-hydroxy-3,4-dihydro-2H-benzo[e][1,2]oxaborinine-8-carboxylic acid], the MIC (with A. baumannii ATCC 17978; in [1]; in the test with A. baumannii 1258916; in the test on P. aeruginosa CDC-0054; in test [2]; in the test with P. aeruginosa ATCC 35151) was less than 1 µg/mL throughout. In addition, the MIC is 2 to 4 µg/mL (≈ 2.39 to 4.79 µM) in test [4], 2 to 4 µg/mL (≈ 2.39 to 4.79 µM) with A. baumannii CDC-0033 and less than 1 µg/mL with A. baumannii CDC-0045. In test [3], the IC50 was less than 10 µM.

Turning to `O=C(O)c1c(F)ccc2c1OB(O)[C@@H](NC(=O)[C@H](NC(=O)N1CCN(C3CCN(C(=O)c4c(F)ccc(O)c4F)CC3)C1=O)c1cc(F)c(O)c(O)c1Cl)C2` (single isomer, unassigned) [Example 439], the MIC was less than 1 µg/mL in the test with A. baumannii ATCC 17978; less than 1 µg/mL in test [1]; less than 1 µg/mL in the test on A. baumannii 1258916; 2 to 4 µg/mL (≈ 2.52 to 5.04 µM) in the test with P. aeruginosa CDC-0054; less than 1 µg/mL in test [2]; less than 1 µg/mL with P. aeruginosa ATCC 35151. The MIC (in test [4]; in the test with A. baumannii CDC-0033; with A. baumannii CDC-0045) was less than 1 µg/mL in each case. Also, in [3], the IC50 is less than 10 µM.

In the case of `O=C(O)c1c(F)ccc2c1OB(O)[C@@H](NC(=O)C(NC(=O)N1CCN(C3CCN(C(=O)Nc4ccc(F)c(O)c4)CC3)C(=O)C1=O)c1cc(F)c(O)c(O)c1Cl)C2` (stereo partly drawn) [Example 480, (3R)-3-(2-(2-chloro-5-fluoro-3,4-dihydroxyphenyl)-2-(4-(1-((4-fluoro-3-hydroxyphenyl)carbamoyl)piperidin-4-yl)-2,3-dioxopiperazine-1-carboxamido)acetamido)-7-fluoro-2-hydroxy-3,4-dihydro-2H-benzo[e][1,2]oxaborinine-8-carboxylic acid], the MIC with A. baumannii ATCC 17978 was less than 1 µg/mL; in test [1], 2 to 4 µg/mL (≈ 2.44 to 4.88 µM); with A. baumannii 1258916, less than 1 µg/mL; in the test on P. aeruginosa CDC-0054, less than 1 µg/mL; in [2] it was less than 1 µg/mL; with P. aeruginosa ATCC 35151 it was less than 1 µg/mL. The MIC is 8 to 16 µg/mL (≈ 9.77 to 19.5 µM) in test [4], 2 to 4 µg/mL (≈ 2.44 to 4.88 µM) in the test on A. baumannii CDC-0033 and less than 1 µg/mL in the test with A. baumannii CDC-0045. The IC50 in test [3] was less than 10 µM.
